Tests used:
[1] = target: Mitogen-activated protein kinase kinase kinase 20 (Homo sapiens) (UniProt Q9NYL2); settings: Compound concentration 100.0 nM
[2] = system: Epidermal growth factor receptor (Homo sapiens), P00533 [L861Q]; settings: Compound concentration 100.0 nM
[3] = target: Muscarinic acetylcholine receptor M4 (Homo sapiens) (UniProt P08173); settings: Compound concentration 10.0 uM
A498 = experiment: Kidney A-498 cell line MDS Pharma Services Proliferation Assay; format: functional, cell-based, Homo sapiens
[4] = target: Proto-oncogene tyrosine-protein kinase Src (Homo sapiens) (UniProt P12931); experiment: cSRC (h) Upstate kinase activity assay; settings: Compound concentration 10.0 uM
Chain of Proto-oncogene tyrosine-protein kinase Src (Homo sapiens) (P12931 2-536 limits assumed): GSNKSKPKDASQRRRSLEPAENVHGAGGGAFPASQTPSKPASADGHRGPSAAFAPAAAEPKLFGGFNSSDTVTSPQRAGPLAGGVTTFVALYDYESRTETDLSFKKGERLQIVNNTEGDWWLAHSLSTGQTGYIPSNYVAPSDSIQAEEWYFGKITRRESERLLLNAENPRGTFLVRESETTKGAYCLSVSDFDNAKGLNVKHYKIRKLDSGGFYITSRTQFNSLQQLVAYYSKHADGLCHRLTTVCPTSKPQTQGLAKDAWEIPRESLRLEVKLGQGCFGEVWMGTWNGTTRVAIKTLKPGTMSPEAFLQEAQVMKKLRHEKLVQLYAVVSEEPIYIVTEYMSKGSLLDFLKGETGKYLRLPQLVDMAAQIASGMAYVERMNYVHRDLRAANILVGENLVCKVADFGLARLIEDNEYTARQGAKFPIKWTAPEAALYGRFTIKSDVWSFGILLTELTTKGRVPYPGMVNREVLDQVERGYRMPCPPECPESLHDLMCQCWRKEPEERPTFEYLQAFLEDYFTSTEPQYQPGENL

[5] = target: Proto-oncogene tyrosine-protein kinase ROS (Homo sapiens) (UniProt P08922); experiment: Ros (h) Upstate kinase activity assay; settings: Compound concentration 10.0 uM
Chain of Proto-oncogene tyrosine-protein kinase ROS (Homo sapiens) (P08922 whole entry): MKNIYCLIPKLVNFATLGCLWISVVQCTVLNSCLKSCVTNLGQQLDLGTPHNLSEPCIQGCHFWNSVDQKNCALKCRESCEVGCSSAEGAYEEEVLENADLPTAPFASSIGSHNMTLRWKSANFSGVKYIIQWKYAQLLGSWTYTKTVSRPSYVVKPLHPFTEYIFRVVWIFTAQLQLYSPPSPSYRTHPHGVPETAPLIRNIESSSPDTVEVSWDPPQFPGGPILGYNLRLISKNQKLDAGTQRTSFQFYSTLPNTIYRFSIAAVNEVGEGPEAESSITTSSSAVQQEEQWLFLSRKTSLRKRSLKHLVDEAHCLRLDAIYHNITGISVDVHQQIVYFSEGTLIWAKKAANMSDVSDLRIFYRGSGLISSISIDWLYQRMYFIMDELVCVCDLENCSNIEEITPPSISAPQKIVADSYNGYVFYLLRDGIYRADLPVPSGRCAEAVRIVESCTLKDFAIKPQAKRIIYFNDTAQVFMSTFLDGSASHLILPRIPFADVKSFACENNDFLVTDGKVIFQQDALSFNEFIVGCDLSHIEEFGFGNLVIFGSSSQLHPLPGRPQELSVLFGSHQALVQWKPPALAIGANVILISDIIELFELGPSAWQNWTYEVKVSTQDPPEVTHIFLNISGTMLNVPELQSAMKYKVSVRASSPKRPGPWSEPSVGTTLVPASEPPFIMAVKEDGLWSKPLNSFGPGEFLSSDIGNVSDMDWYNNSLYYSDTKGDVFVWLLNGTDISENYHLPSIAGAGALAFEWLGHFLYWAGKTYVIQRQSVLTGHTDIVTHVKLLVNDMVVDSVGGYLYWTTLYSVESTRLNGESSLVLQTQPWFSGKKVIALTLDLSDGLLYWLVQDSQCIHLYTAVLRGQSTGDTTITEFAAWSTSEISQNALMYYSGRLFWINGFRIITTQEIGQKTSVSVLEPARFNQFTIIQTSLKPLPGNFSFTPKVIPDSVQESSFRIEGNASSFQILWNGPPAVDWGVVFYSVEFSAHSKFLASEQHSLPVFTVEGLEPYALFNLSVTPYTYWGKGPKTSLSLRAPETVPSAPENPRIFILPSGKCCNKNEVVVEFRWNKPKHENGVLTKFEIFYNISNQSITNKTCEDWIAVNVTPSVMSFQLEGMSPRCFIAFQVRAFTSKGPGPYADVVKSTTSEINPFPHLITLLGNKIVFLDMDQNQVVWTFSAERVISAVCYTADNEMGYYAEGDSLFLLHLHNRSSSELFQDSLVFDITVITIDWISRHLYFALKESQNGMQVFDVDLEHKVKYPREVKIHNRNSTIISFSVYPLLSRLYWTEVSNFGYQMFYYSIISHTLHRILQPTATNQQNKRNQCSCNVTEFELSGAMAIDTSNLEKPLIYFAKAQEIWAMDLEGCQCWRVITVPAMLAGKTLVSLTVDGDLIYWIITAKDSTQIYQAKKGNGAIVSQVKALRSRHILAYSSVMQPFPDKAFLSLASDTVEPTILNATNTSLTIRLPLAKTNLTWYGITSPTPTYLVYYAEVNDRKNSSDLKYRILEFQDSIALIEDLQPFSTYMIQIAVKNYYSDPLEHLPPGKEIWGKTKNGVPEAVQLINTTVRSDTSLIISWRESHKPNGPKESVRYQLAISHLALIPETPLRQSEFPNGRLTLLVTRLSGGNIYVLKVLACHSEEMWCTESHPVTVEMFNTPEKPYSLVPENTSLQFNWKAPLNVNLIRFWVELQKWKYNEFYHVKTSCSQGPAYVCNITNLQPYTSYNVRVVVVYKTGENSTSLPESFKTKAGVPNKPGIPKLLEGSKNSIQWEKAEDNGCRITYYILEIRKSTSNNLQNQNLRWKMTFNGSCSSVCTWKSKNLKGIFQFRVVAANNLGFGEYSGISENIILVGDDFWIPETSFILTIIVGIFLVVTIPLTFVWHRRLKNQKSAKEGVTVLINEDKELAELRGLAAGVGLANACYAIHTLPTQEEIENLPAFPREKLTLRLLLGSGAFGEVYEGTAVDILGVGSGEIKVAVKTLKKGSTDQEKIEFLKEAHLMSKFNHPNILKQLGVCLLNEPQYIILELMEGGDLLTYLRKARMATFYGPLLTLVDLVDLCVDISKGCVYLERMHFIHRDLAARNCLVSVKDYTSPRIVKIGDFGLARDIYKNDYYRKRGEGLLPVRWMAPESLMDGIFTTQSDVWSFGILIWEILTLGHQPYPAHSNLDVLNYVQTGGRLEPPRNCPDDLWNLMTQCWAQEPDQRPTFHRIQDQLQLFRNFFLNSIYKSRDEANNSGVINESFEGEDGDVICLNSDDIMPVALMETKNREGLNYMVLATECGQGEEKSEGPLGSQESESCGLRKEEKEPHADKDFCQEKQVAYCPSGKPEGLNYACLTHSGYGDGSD

[6] = target: Ribosomal protein S6 kinase alpha-1 (Homo sapiens) (UniProt Q15418); experiment: Rsk1 (h) Upstate kinase activity assay; settings: Compound concentration 10.0 uM
Chain of Ribosomal protein S6 kinase alpha-1 (Homo sapiens) (Q15418 whole entry): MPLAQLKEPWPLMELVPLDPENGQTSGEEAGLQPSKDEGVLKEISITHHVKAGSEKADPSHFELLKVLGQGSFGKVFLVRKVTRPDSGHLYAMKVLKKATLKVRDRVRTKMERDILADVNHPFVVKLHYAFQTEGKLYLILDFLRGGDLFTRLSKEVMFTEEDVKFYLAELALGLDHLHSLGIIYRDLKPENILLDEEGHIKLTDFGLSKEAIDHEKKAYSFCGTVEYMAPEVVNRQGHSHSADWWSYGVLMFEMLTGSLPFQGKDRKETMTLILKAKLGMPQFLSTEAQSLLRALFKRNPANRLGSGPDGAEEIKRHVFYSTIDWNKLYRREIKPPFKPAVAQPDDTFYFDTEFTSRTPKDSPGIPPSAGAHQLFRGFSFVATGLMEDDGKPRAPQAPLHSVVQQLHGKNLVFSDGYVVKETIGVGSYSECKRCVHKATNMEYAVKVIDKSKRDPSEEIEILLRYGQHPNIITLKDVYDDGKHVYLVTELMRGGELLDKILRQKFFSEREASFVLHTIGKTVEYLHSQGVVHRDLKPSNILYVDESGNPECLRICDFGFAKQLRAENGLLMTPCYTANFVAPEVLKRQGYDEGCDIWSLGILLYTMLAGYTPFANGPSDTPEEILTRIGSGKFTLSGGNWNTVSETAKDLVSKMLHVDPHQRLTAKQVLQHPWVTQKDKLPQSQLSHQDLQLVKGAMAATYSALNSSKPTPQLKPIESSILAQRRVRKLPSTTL

[7] = Lymphoma1-1331-IJ- JAl cell line MDS Pharma Services Proliferation Assay; format: functional, cell-based, Homo sapiens
MCF7 = experiment: Breast MCF-7 cell line MDS Pharma Services Proliferation Assay; format: functional, cell-based, Homo sapiens
[8] = system: KATO III stomach cancer cell line; experiment: Stomach KATO III cell line MDS Pharma Services Proliferation Assay; format: functional, cell-based, Homo sapiens
[9] = target: T1, MAP kinase-activated protein kinase 5 (Homo sapiens) (UniProt Q8IW41); experiment: PRAK (h) Upstate kinase activity assay; settings: Compound concentration 10.0 uM
T1 sequence (whole entry): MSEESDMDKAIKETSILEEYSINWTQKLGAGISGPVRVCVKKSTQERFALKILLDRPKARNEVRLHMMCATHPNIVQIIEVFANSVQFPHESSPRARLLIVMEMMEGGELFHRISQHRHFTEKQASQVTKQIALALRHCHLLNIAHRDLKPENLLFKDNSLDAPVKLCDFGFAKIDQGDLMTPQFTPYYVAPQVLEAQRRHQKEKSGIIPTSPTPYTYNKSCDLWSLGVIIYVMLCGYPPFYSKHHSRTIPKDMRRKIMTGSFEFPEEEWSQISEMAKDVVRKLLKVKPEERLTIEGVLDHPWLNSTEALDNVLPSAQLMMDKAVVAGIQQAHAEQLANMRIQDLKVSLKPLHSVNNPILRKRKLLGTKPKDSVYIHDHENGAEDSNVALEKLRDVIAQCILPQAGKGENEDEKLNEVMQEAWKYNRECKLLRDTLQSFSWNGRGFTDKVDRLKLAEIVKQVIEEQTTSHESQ

Rattus norvegicus = species on record: Rattus norvegicus; experiment: Rsk1 (r) Upstate kinase activity assay; settings: Compound concentration 10.0 uM
MIA PaCa-2 = experiment: Pancreas MIA PaCa-2 cell line MDS Pharma Services Proliferation Assay; format: functional, cell-based, Homo sapiens
[10] = target: Receptor tyrosine-protein kinase erbB-4 (Homo sapiens) (UniProt Q15303); experiment: ErbB4 (h) Upstate kinase activity assay; settings: Compound concentration 10.0 uM
[11] = target: Mitogen-activated protein kinase 11 (Homo sapiens) (UniProt Q15759); experiment: SAPK2b (h) Upstate kinase activity assay; settings: Compound concentration 10.0 uM
[12] = target: Protein kinase C delta type (Homo sapiens) (UniProt Q05655); experiment: PKCdelta (h) Upstate kinase activity assay; settings: Compound concentration 10.0 uM
Chain of Protein kinase C delta type (Homo sapiens) (Q05655 whole entry, looked up): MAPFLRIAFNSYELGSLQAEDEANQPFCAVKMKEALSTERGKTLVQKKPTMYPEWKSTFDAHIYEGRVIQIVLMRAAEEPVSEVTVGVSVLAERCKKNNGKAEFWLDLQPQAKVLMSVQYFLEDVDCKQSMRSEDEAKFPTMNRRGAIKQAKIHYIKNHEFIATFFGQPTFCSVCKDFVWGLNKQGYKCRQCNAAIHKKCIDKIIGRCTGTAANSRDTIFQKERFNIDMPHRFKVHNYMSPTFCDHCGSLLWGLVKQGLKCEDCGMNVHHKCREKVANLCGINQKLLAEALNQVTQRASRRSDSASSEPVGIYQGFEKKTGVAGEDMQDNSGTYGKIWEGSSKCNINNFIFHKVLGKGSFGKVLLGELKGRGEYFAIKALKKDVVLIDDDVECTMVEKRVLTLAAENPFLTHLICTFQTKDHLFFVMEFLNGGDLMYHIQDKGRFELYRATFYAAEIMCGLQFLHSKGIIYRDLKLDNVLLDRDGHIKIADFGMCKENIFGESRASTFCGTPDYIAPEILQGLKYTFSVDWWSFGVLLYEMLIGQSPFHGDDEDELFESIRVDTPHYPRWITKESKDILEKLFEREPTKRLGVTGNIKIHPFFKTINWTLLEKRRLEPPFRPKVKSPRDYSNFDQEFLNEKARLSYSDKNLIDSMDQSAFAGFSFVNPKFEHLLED

[13] = target: Tyrosine-protein kinase Fgr (Homo sapiens) (UniProt P09769); experiment: Fgr (h) Upstate kinase activity assay; settings: Compound concentration 10.0 uM
[14] = Homo sapiens, Lymphoma1-1331-IJ- JAl

Chain of Mitogen-activated protein kinase kinase kinase 20 (Homo sapiens) (Q9NYL2 2-800 limits assumed): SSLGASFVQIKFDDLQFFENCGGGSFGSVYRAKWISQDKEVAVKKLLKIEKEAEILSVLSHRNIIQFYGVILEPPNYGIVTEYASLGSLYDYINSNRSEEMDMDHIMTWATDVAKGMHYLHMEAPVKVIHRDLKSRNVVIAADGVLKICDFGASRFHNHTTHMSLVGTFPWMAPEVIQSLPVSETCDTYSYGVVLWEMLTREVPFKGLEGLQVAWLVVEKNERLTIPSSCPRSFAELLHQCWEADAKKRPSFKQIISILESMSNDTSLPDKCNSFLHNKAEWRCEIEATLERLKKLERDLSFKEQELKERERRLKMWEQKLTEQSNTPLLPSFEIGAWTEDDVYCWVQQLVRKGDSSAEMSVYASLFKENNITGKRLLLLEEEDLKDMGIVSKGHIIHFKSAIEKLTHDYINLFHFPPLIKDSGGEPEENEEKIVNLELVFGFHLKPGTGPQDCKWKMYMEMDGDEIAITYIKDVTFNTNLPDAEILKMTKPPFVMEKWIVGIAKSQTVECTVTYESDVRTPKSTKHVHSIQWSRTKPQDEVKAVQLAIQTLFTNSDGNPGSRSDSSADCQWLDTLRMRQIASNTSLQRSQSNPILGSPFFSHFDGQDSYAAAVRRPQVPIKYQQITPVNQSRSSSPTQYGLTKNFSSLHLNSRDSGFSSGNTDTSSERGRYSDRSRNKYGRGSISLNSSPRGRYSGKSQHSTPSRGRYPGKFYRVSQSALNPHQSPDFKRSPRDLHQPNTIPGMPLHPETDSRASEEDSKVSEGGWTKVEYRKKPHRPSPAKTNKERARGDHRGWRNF

Cn1cc(Cl)c2c(Oc3c(F)cc(Nc4cc(Cl)nc(N)n4)cc3F)ccnc21 [BAY-4900]
residual activity [1]: 97% | residual activity [2]: 100% | inhibition [3]: -3.76%

Cc1c[nH]c2nccc(Oc3c(F)cc(Nc4cc(Cl)nc(N)n4)cc3F)c12 [BAY-549]
IC50 (A498; Homo sapiens, A498): 7.8 µM | TGI (A498; Homo sapiens, A498): 70 µM | CC50 (A498; Homo sapiens, A498, read-out: LC50 (the source's name)): > 100 µM | Mean % growth (n = 2) for 0.01 µM probe concentration (A498; ± SEM 2 % growth): 99% | Mean % growth (n = 2) for 10.0 µM probe concentration (A498; ± SEM 2 % growth): 26% | Mean % growth (n = 2) for 100.0 µM probe concentration (A498; ± SEM 2 % growth): -1% | Mean % growth (n = 2) for 0.1 µM probe concentration (A498; ± SEM 5 % growth): 93% | Mean % growth (n = 2) for 1.0 µM probe concentration (A498; ± SEM 5 % growth): 98% | inhibition [4]: -4% | inhibition [5]: 10% | inhibition [6]: 72% | IC50 [7, 14]: > 100 µM | TGI [7, 14]: > 100 µM | CC50 ([7]; Homo sapiens, Lymphoma1-1331-IJ- JAl, read-out: LC50 (the source's name)): > 100 µM | Mean % growth (n = 2) for 10.0 µM probe concentration ([7]; ± SEM 1 % growth): 98% | Mean % growth (n = 2) for 0.1 µM probe concentration ([7]; ± SEM 5 % growth): 103% | Mean % growth (n = 2) for 1.0 µM probe concentration ([7]; ± SEM 6 % growth): 97% | Mean % growth (n = 2) for 100.0 µM probe concentration ([7]; ± SEM 7 % growth): 80% | Mean % growth (n = 2) for 0.01 µM probe concentration ([7]; ± SEM 8 % growth): 96% | TGI (MCF7; Homo sapiens, MCF7): > 100 µM | CC50 (MCF7; Homo sapiens, MCF7, read-out: LC50 (the source's name)): > 100 µM | Mean % growth (n = 2) for 1.0 µM probe concentration (MCF7; ± SEM 1 % growth): 87% | Mean % growth (n = 2) for 10.0 µM probe concentration (MCF7; ± SEM 2 % growth): 57% | Mean % growth (n = 2) for 0.01 µM probe concentration (MCF7; ± SEM 3 % growth): 92% | Mean % growth (n = 2) for 100.0 µM probe concentration (MCF7; ± SEM 4 % growth): 6% | Mean % growth (n = 2) for 0.1 µM probe concentration (MCF7; ± SEM 9 % growth): 89% | IC50 ([8]; Homo sapiens, KATO III): 3.2 µM | TGI ([8]; Homo sapiens, KATO III): > 100 µM | CC50 ([8]; Homo sapiens, KATO III, read-out: LC50 (the source's name)): > 100 µM | Mean % growth (n = 2) for 0.01 µM probe concentration ([8]; ± SEM 7 % growth): 98% | Mean % growth (n = 2) for 10.0 µM probe concentration ([8]; ± SEM 7 % growth): 27% | Mean % growth (n = 2) for 100.0 µM probe concentration ([8]; ± SEM 7 % growth): 19% | Mean % growth (n = 2) for 1.0 µM probe concentration ([8]; ± SEM 8 % growth): 66% | Mean % growth (n = 2) for 0.1 µM probe concentration ([8]; ± SEM 11 % growth): 99% | inhibition [9]: 36% | inhibition (Rattus norvegicus): 79% | Mean % growth (n = 2) for 10.0 µM probe concentration (MIA PaCa-2): 45% | IC50 (MIA PaCa-2; Homo sapiens, MIA PaCa-2): 8.9 µM | TGI (MIA PaCa-2; Homo sapiens, MIA PaCa-2): 48 µM | CC50 (MIA PaCa-2; Homo sapiens, MIA PaCa-2, read-out: LC50 (the source's name)): > 100 µM | Mean % growth (n = 2) for 0.1 µM probe concentration (MIA PaCa-2; ± SEM 1 % growth): 98% | Mean % growth (n = 2) for 0.01 µM probe concentration (MIA PaCa-2; ± SEM 3 % growth): 95% | Mean % growth (n = 2) for 1.0 µM probe concentration (MIA PaCa-2; ± SEM 3 % growth): 88% | Mean % growth (n = 2) for 100.0 µM probe concentration (MIA PaCa-2; ± SEM 5 % growth): -23% | inhibition [10]: 5% | inhibition [11]: 1% | inhibition [12]: 16% | inhibition [13]: 27%
